Values quoted from earlier work, collected in PubChem BioAssay AID1259409 (Chemical Carcinogenesis Research Information System (CCRIS), 2018).
Values joined by “and” are separate entries in the source; they are usually repeats but may differ in a detail not shown here. Equal entries are not always repeated.

Test system: rodent chemically induced tumor inhibition, incidence and multiplicity
Experiment: CCRIS tumor inhibitor studies
Conditions: for outcome: Carcinogen: 7,12-Dimethylbenz(a)anthracene, Route [Inhibitor]: Oral (gavage), Species: Rat, Strain/Sex: (16/Group), Target Tissue: Type of Lesion: Mammary Gland: tumor, Dose [Carcinogen]: 100 mg/kg once at 50 days of age, Promoter: None

SMILES: C=C1/C(=C\C=C2/CCC[C@]3(C)[C@@H]([C@H](C)CCCC(C)(C)O)CC[C@@H]23)C[C@@H](O)C[C@@H]1O
- tumour outcome (control, treated, inhibition, significance) (Carcinogen: 7,12-DIMETHYLBENZ[A]ANTHRACENE, 57-97-6, Dose [Inhibitor]: 0.125 NMOL 2/WK STARTING 1 WK AFTER CARCINOGEN TREATMENT AND CONTINUING FOR 9 WK (STUDY DURATION: 10 WK), Route [Inhibitor]: DERMAL, Species: MOUSE, Strain/Sex: CD-1/FEMALE, Target Tissue: Type of Lesion: SKIN: PAPILLOMA, Dose [Carcinogen]: 20 NMOL ONCE, Promoter: 12-O-TETRADECANOYLPHORBOL-13-ACETATE, 16561-29-8): 77%, 37%, 52%, p<0.05
- tumour outcome (control, treated, inhibition, significance) (Carcinogen: 7,12-DIMETHYLBENZ[A]ANTHRACENE, 57-97-6, Dose [Inhibitor]: 0.125 NMOL 2/WK STARTING 1 WK AFTER CARCINOGEN TREATMENT AND CONTINUING FOR 12 WK (STUDY DURATION: 13 WK), Route [Inhibitor]: DERMAL, Species: MOUSE, Strain/Sex: CD-1/FEMALE, Target Tissue: Type of Lesion: SKIN: PAPILLOMA, Dose [Carcinogen]: 20 NMOL ONCE, Promoter: 12-O-TETRADECANOYLPHORBOL-13-ACETATE, 16561-29-8): 96%, 70%, 27%, p<0.05
- tumour outcome (control, treated, inhibition, significance) (Carcinogen: 7,12-DIMETHYLBENZ[A]ANTHRACENE, 57-97-6, Dose [Inhibitor]: 0.25 NMOL 2/WK STARTING 1 WK AFTER CARCINOGEN TREATMENT AND CONTINUING FOR 9 WK (STUDY DURATION: 10 WK), Route [Inhibitor]: DERMAL, Species: MOUSE, Strain/Sex: CD-1/FEMALE, Target Tissue: Type of Lesion: SKIN: PAPILLOMA, Dose [Carcinogen]: 20 NMOL ONCE, Promoter: 12-O-TETRADECANOYLPHORBOL-13-ACETATE, 16561-29-8): 77%, 33%, 57%, p<0.05
- tumour outcome (control, treated, inhibition, significance) (Carcinogen: 7,12-DIMETHYLBENZ[A]ANTHRACENE, 57-97-6, Dose [Inhibitor]: 0.25 NMOL 2/WK STARTING 1 WK AFTER CARCINOGEN TREATMENT AND CONTINUING FOR 12 WK (STUDY DURATION: 13 WK), Route [Inhibitor]: DERMAL, Species: MOUSE, Strain/Sex: CD-1/FEMALE, Target Tissue: Type of Lesion: SKIN: PAPILLOMA, Dose [Carcinogen]: 20 NMOL ONCE, Promoter: 12-O-TETRADECANOYLPHORBOL-13-ACETATE, 16561-29-8): 96%, 70%, 27%, p<0.05
- tumour outcome (control, treated, inhibition, significance) (Carcinogen: 7,12-DIMETHYLBENZ[A]ANTHRACENE, 57-97-6, Dose [Inhibitor]: 0.5 NMOL 2/WK STARTING 1 WK AFTER CARCINOGEN TREATMENT AND CONTINUING FOR 12 WK (STUDY DURATION: 13 WK), Route [Inhibitor]: DERMAL, Species: MOUSE, Strain/Sex: CD-1/FEMALE, Target Tissue: Type of Lesion: SKIN: PAPILLOMA, Dose [Carcinogen]: 20 NMOL ONCE, Promoter: 12-O-TETRADECANOYLPHORBOL-13-ACETATE, 16561-29-8): 83%, 43%, 48%, p<0.05 and 96%, 59%, 39%, p<0.05
- tumour outcome (control, treated, inhibition, significance) (Carcinogen: 7,12-DIMETHYLBENZ[A]ANTHRACENE, 57-97-6, Dose [Inhibitor]: 0.5 NMOL 2/WK STARTING 1 WK AFTER CARCINOGEN TREATMENT AND CONTINUING FOR 15 WK (STUDY DURATION: 16 WK), Route [Inhibitor]: DERMAL, Species: MOUSE, Strain/Sex: CD-1/FEMALE, Target Tissue: Type of Lesion: SKIN: PAPILLOMA, Dose [Carcinogen]: 20 NMOL ONCE, Promoter: 12-O-TETRADECANOYLPHORBOL-13-ACETATE, 16561-29-8): 88%, 59%, 33%, p<0.05 and 92%, 77%, 16%, not significant
- tumour outcome (control, treated, inhibition, significance) (Carcinogen: 7,12-DIMETHYLBENZ[A]ANTHRACENE, 57-97-6, Dose [Inhibitor]: 2 NMOL 2/WK STARTING 1 WK AFTER CARCINOGEN TREATMENT AND CONTINUING FOR 9 WK (STUDY DURATION: 10 WK), Route [Inhibitor]: DERMAL, Species: MOUSE, Strain/Sex: CD-1/FEMALE, Target Tissue: Type of Lesion: SKIN: PAPILLOMA, Dose [Carcinogen]: 20 NMOL ONCE, Promoter: 12-O-TETRADECANOYLPHORBOL-13-ACETATE, 16561-29-8): 47%, 4%, 91%, p<0.05
- tumour outcome (control, treated, inhibition, significance) (Carcinogen: 7,12-DIMETHYLBENZ[A]ANTHRACENE, 57-97-6, Dose [Inhibitor]: 2 NMOL 2/WK STARTING 1 WK AFTER CARCINOGEN TREATMENT AND CONTINUING FOR 12 WK (STUDY DURATION: 13 WK), Route [Inhibitor]: DERMAL, Species: MOUSE, Strain/Sex: CD-1/FEMALE, Target Tissue: Type of Lesion: SKIN: PAPILLOMA, Dose [Carcinogen]: 20 NMOL ONCE, Promoter: 12-O-TETRADECANOYLPHORBOL-13-ACETATE, 16561-29-8): 83%, 12%, 86%, p<0.05
- tumour outcome (control, treated, inhibition, significance) (Carcinogen: 7,12-DIMETHYLBENZ[A]ANTHRACENE, 57-97-6, Dose [Inhibitor]: 2 NMOL 2/WK STARTING 1 WK AFTER CARCINOGEN TREATMENT AND CONTINUING FOR 15 WK (STUDY DURATION: 16 WK), Route [Inhibitor]: DERMAL, Species: MOUSE, Strain/Sex: CD-1/FEMALE, Target Tissue: Type of Lesion: SKIN: PAPILLOMA, Dose [Carcinogen]: 20 NMOL ONCE, Promoter: 12-O-TETRADECANOYLPHORBOL-13-ACETATE, 16561-29-8): 88%, 18%, 80%, p<0.05
- tumour outcome (control, treated, inhibition, significance) (Carcinogen: N-METHYL-N-NITROSOUREA [684-93-5], Dose [Inhibitor]: 0, 0.8 ML OF 10 µM ETHANOL SOLUTION ADMINISTERED IN NORMAL SALINE VIA CATHETER 1X/WK FOR 7 WK BEGINNING 3 WK POST CARCIN, Route [Inhibitor]: INTRAVESICAL, Species: RAT, Strain/Sex: F344/FEMALE, Target Tissue: Type of Lesion: URINARY BLADDER: TUMOR, Dose [Carcinogen]: ONCE/2 WK FOR 6 WK (STUDY DURATION: 31 WK; DOSE NOT REPORTED), Promoter: NONE): 6/9 (67%), 5/9 (56%), 16%, not significant

SMILES: Cc1cc2nc3c(=O)[nH]c(=O)nc-3n(C[C@H](O)[C@H](O)[C@H](O)CO)c2cc1C
- tumour outcome (control, treated, inhibition, significance) (Carcinogen: 7,12-DIMETHYLBENZ[A]ANTHRACENE, 57-97-6, Dose [Inhibitor]: 2 MG IN DRINKING WATER DAILY STARTING 4 WK BEFORE CARCINOGEN TREATMENT AND CONTINUING FOR DURATION OF THE STUDY (STUDY D, Route [Inhibitor]: ORAL, Species: MOUSE, Strain/Sex: 101/MALE, FEMALE, Target Tissue: Type of Lesion: SKIN: PAPILLOMA, Dose [Carcinogen]: 225 UG IN 0.15 ML ACETONE ONCE, Promoter: CROTON OIL, 8001-28-3): 17/19 (89%), 19/19 (100%), -12%, not calculated
- tumour outcome (control, treated, inhibition, significance) (Carcinogen: BENZO[A]PYRENE, 50-32-8, Dose [Inhibitor]: 0.2% IN DIET DAILY STARTING 4 WK BEFORE START OF CARCINOGEN TREATMENT AND CONTINUING FOR DURATION OF STUDY (STUDY DURATI, Route [Inhibitor]: ORAL, Species: MOUSE, Strain/Sex: 101/MALE, FEMALE, Target Tissue: Type of Lesion: SKIN: TUMOR (BENIGN, MALIGNANT), Dose [Carcinogen]: 0.2 ML OF 0.025% SOLUTION IN ACETONE 2/WK FOR 23 WK STARTING 4 WK AFTER STAR OF AGENT TREATMENT, Promoter: NONE USED): 21/30 (70%), 25/28 (89%), -27%, not calculated
- tumour outcome (control, treated, inhibition, significance) (Carcinogen: BENZO[A]PYRENE, 50-32-8, Dose [Inhibitor]: 0.25 MG 2/WK FOR 24 WK STARTING 4 WK BEFORE START OF CARCINOGEN TREATMENT AN D CONTINUING FOR DURATION OF STUDY (STUDY D, Route [Inhibitor]: SUBCUTANEOUS, Species: MOUSE, Strain/Sex: 101/MALE, FEMALE, Target Tissue: Type of Lesion: SKIN: MALIGNANT TUMOR, Dose [Carcinogen]: 0.2 ML OF 0.25% 2/WK FOR 20 WK, Promoter: NONE USED): 12/18 (67%), 8/19 (42%), 37%, not calculated
- tumour outcome (control, treated, inhibition, significance) (Carcinogen: BENZO[A]PYRENE, 50-32-8, Dose [Inhibitor]: 0.6% IN DIET DAILY STARTING 4 WK BEFORE START OF CARCINOGEN TREATMENT AND CONTINUING FOR DURATION OF STUDY (STUDY DURATI, Route [Inhibitor]: ORAL, Species: MOUSE, Strain/Sex: 101/MALE, FEMALE, Target Tissue: Type of Lesion: SKIN: TUMOR (BENIGN, MALIGNANT), Dose [Carcinogen]: 0.2 ML OF 0.025% SOLUTION IN ACETONE 2/WK FOR 23 WK, Promoter: NONE USED): 21/30 (70%), 32/37 (86%), -23%, not calculated
- tumour outcome (control, treated, inhibition, significance) (Carcinogen: BENZO[A]PYRENE, 50-32-8, Dose [Inhibitor]: 2.5 MG 2/WK FOR 24 WK STARTING 4 WK BEFORE START OF CARCINOGEN TREATMENT AND CONTINUING FOR DURATION OF STUDY (STUDY DUR, Route [Inhibitor]: SUBCUTANEOUS, Species: MOUSE, Strain/Sex: 101/MALE, FEMALE, Target Tissue: Type of Lesion: SKIN: PAPILLOMA, Dose [Carcinogen]: 0.2 ML OF 0.25% 2/WK FOR 20 WK, Promoter: NONE USED): 13/18 (72%), 8/19 (42%), 42%, not calculated
- tumour outcome (control, treated, inhibition, significance) (Carcinogen: UV IRRADIATION, Dose [Inhibitor]: 15 MG/ML DRINKING WATER DAILY FOR DURATION OF STUDY (STUDY DURATION: 11 MO), Route [Inhibitor]: ORAL, Species: MOUSE, Strain/Sex: HR-HAIRLESS/MALE, Target Tissue: Type of Lesion: SKIN: SQUAMOUS CELL CARCINOMA, Dose [Carcinogen]: 5 MIN/D 6 D/WK FOR DURATION OF STUDY, Promoter: NONE USED): 6/6 (100%), 6/6 (100%), 0%, not significant
- tumour outcome (control, treated, inhibition, significance) (Carcinogen: UV IRRADIATION, Dose [Inhibitor]: 15 MG/ML PROPYLENE GLYCOL DAILY FOR DURATION OF STUDY (STUDY DURATION: 11 MO), Route [Inhibitor]: DERMAL, Species: MOUSE, Strain/Sex: HR-HAIRLESS/MALE, Target Tissue: Type of Lesion: SKIN: SQUAMOUS CELL CARCINOMA, Dose [Carcinogen]: 5 MIN/D 6 D/WK FOR DURATION OF STUDY, Promoter: NONE USED): 6/6 (100%), 7/7 (100%), 0%, not significant

SMILES: NC(=O)CC[C@H](N)C(=O)O
- outcome (57-97-6, Dose [Inhibitor]: 0, 1 g/kg/day for 4 wks, study duration 4 wks): 93.8%, 31.2%
- outcome (57-97-6, Dose [Inhibitor]: 0, 1 g/kg/day for 11 wks, study duration 11 wks): 93.8%, 43.7%
